# Laboratory results as given in patent publication US11021481B2, “Substituted isoindolin-1-ones and 2,3-dihydro-1h-pyrrolo[3,4-c]pyridin-1-ones as HPK1 antagonists” (Nimbus Saturn, Inc., priority 2019, dated 2021).
# Counter-ions that a name gives are not always drawn.
# Target: HPK1 (Homo sapiens (Human), UniProt Q92918)
# Test: HPK1 biochemical enzyme assay (microfluidic mobility shift assay)
# Conditions: 1.5 nM HPK1, ATP 1 mM final, 30 min preincubation, 60 min at RT, Caliper EZ Reader; read-out: HPK1 1000UMATP caliper IC50
# Outline: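 Mobility shift readout of HPK1 activity after a 60 min RT reaction with 1 mM ATP, 1 μM substrate and 5 mM MgCl2. Enzyme/substrate mix was first exposed to compounds for 30 min, using ten-point curves topping at 3 μM final.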
# HPK1, sequence (Q92918 whole entry): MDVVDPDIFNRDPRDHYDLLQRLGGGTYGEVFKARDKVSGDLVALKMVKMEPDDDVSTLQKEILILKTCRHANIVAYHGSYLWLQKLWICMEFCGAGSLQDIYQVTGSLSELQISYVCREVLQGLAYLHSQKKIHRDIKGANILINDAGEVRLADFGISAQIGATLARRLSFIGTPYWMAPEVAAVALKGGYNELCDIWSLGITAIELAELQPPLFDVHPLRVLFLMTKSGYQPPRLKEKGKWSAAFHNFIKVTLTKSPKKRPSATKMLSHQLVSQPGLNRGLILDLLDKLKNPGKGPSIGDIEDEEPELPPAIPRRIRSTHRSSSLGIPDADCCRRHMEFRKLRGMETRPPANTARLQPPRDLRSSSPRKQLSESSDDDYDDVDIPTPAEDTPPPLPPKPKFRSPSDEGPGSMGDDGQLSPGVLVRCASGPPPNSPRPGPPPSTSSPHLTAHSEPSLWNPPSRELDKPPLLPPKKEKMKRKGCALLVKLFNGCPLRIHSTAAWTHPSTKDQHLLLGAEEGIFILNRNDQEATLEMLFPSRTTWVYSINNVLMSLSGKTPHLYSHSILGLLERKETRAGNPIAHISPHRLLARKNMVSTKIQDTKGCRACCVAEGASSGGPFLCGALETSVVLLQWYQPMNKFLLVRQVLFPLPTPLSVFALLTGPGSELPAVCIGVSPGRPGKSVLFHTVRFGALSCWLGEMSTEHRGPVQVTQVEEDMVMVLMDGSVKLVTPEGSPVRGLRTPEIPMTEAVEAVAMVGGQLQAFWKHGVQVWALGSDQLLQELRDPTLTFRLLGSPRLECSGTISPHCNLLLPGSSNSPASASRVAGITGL
row,Compound,IC50 [nM]
1,"O=C1NCc2c(-c3cnc4cc(F)ccn34)ccc(Nc3cccc(O[C@H]4CCC[C@H]4O)n3)c21 (stereo in doubt) [I-354, 4-(7-fluoroimidazo [1,2-a]pyridin-3-yl)-7-((6-(((lR,2S)-2-hydroxycyclopentyl)oxy)pyri-din-2-yl)amino)isoin-dolin-1-one]",> 1000
2,"Cn1ccc2c(-c3ccc(Nc4ccc(N5CC6CCC(C5)N6)cn4)c4c3CNC4=O)ccnc21 [I-70, 7-[[5-(3,8-diazabicyc1o [3,2.1]octan-3-yl)-2-pyridyl]amino]-4-(1-methylpyrrolo [2,3-b]pyridin-4-yl)isoindolin-1-one]",< 100
3,"CN1CCN(c2ccc(Nc3cnc(-c4c[nH]c5ccncc45)c4c3C(=O)NC4)nc2)CC1 [I-13, 7-[[5-(4-methylpiperazin-1-yl)-2-pyridyl]amino]-4-(1H-pyrrolo[3,2-c]pyridin-3-yl)-2,3-dihydropyrrolo [3,4-c]pyridin-1-one]",100 to 1000
4,"CN1CCN(c2ccc(Nc3cnc(-c4c[nH]c5nc(C(F)(F)F)ccc45)c4c3C(=O)NC4)nc2)CC1 [I-253, 7-((5-(4-methylpiperazin-1-yl)pyridin-2-yl)amino]-4-(6-(trifluorometh-yl)-1H-pyrrolo[2,3-b]pyridin-3-yl)-2,3-dihydro-1H-pyrrolo[3,4-c]pyridin-1-one]",> 1000
5,"Cn1ccc2c(-c3ccc(-n4ccc(N5CCC(O)CC5)n4)c4c3CNC4=O)ccnc21 [I-308, 7-(3-(4-hydroxypiper-idin-1-yl)-1H-pyrazol-1-yl)-4-(1-methyl-1H-pyrrolo[2,3-b)pyridin-4-yl)isoindolin-1-one]",> 1000
6,"Cn1ccc2c(-c3ccc(-n4ccc(N5CCC[C@@](C)(O)C5)n4)c4c3CNC4=O)ccnc21 (single isomer, unassigned) [I-305]",> 1000
7,"CC(C)N(C)Cc1nc(Nc2ccc(-c3cnc4cc(F)ccn34)c3c2C(=O)NC3)ccc1C1CCOC1 (stereo in doubt) [I-729, (S)-4-(7-fluoroimidazo [1,2-a]pyridin-3-yl)-7-((6-((isopropyl(methyl)amino)methyl)-5-(tetrahydrofuran-3-yl)pyridin-2-yl)amino)isoin-dolin-1-one]",< 100
8,"Cn1ccc2c(-c3ccc(Nc4ccc(N5CCC[C@H](O)C5)cn4)c4c3CNC4=O)ccnc21 [I-116, 7-[[5-[(3S)-3-hydroxy-1-piperidyl]-2-pyridyl]amino]-4-(1-methylpyrrolo [2,3-b]pyridin-4-yl)isoindolin-1-one]",< 100
9,"CN(C)Cc1nc(Nc2cnc(-c3ccnc4c3ccn4C)c3c2C(=O)NC3)ccc1N1CCO[C@@H](C(C)(C)O)C1 [I-769, (R)-7-((6-((dimethylamino)-methyl)-5-(2-(2-hydroxypropan-2-yl)morpholino)pyridin-2-yl)amino)-4-(1-methyl-1H-pyrrolo[2,3-b]pyridin-4-yl)-2,3-dihydro-1H-pyrrolo[3,4-c]pyridin-1-one]",< 100
10,"Cn1ccc2c(-c3ncc(Nc4ccc([C@H]5CCOC5)cn4)c4c3CNC4=O)ccnc21 [I-217, (R)-4-(1-methyl-1H-pyrrolo[2,3-b]pyridin-4-yl)-7-((5-(tetrahydro-furan-3-yl)pyridin-2-yl)amino)-2,3-dihydro-1H-pyrrolo[3,4-c]pyridin-1-one]",< 100
11,"CN(C)C1CN(c2nc(Nc3ccc(-c4cnc5cc(F)ccn45)c4c3C(=O)NC4)ccc2C2CCOC2)C1 (stereo in doubt) [I-787, (R)-7-((6-(3-(dimethylami-no)azetidin-1-yl)-5-(tetrahydrofuran-3-yl)pyridin-2-yl)amino)-4-(7-fluoroimidazo [1,2-a]pyridin-3-yl)isoindolin-1-one]",< 100
12,"CC1COc2c(-c3ccc(Nc4ccc(N5CCN(C)CC5)cn4)c4c3CNC4=O)cnn2C1 (stereo in doubt) [I-259, (R)-4-(6-methyl-6,7-dihydro-5H-pyrazolo[5,1-b][1,3]oxazin-3-yl)-7-((5-(4-methylpiperazin-1-yl)pyridin-2-yl)amino)isoin-dolin-1-one]",100 to 1000
13,"Cc1ccn2c(-c3ccc(Nc4ccc(N5CCC(O)CC5)cn4)c4c3CNC4=O)cnc2c1C [I-176, 4-(7,8-dimethylimi-dazo[1,2-a]pyridin-3-yl)-7-[[5-(4-hydroxy-1-piperidyl)-2-pyridyl]amino] isoindolin-1-one]",< 100
14,"O=C1NCc2c(-c3cnc4cnccn34)ccc(Nc3cc(N4CCC(O)CC4)ccn3)c21 [I-324, 7-((4-(4-hydroxy-piperidin-1-yl)pyridin-2-yl)amino)-4-(imidazo[1,2-a]pyrazin-3-yl)isoindolin-1-one]",> 1000
15,"O=C1NCc2c(-c3cnn4ccccc34)ccc(Nc3ccc(N4CCNCC4)cn3)c21 [I-90, 7-[(5-piperazin-1-yl-2-pyridyl)amino]-4-pyrazolo[1,5-a]pyridin-3-yl-isoindolin-1-one]",< 100
16,"CN(C)Cc1nc(Nc2ccc(-c3cnc4cc(F)ccn34)c3c2C(=O)NC3)ccc1C1CCC1 [I-788, 7-((5-cyclobutyl-6-((dimethylamino)-methyl)pyri-din-2-yl)amino)-4-(7-fluoroimidazo [1,2-a]pyridin-3-yl)isoindolin-1-one]",< 100
17,"CN1CCc2cc(-c3ccc(Nc4ccc(N5CCC(O)CC5)cn4)c4c3CNC4=O)nn2CC1=O [I-290, 2-(7-((5-(4-hydroxy-piperidin-1-yl)pyridin-2-yl)amino)-1-oxoisoindolin-4-yl)-6-methyl-5,6-dihydro-4H-pyrazolo[1,5-d][1,4]diaze-pin-7(8H)-one]",> 1000
18,"Cn1ccc2c(-c3ncc(Nc4cccc(C5CCNCC5)n4)c4c3CNC4=O)ccnc21 [I-390, 4-(1-methyl-1H-pyrrolo[2,3-b]pyridin-4-yl)-7-((6-(piperidin-4-yl)pyridin-2-yl)amino)-2,3-dihydro-1H-pyrrolo[3,4-c]pyridin-1-one]",100 to 1000
19,CN(C)Cc1nc(Nc2ccc(-c3cnc4cc(F)ccn34)c3c2C(=O)NC3)ccc1N1CC[C@H](O)C1 [I-555],< 100
20,"O=C1NCc2c(-c3cnc4cc(F)ccn34)ccc(Nc3ccc(N4CCC[C@](O)(CN5CCOCC5)C4)cn3)c21 [I-657, (S)-4-(7-fluoroimidazo [1,2-a]pyridin-3-yl)-7-((5-(3-hydroxy-3-(morpholinomethyl)piperidin-1-yl)pyridin-2-yl)amino)isoin-dolin-1-one]",< 100
21,"NCc1nc(Nc2ccc(-c3cnc4cc(F)ccn34)c3c2C(=O)NC3)ccc1[C@@H]1CCOC1 [I-702, (S)-7-((6-(aminomethyl)-5-(tetrahydrofuran-3-yl)pyridin-2-yl)amino)-4-(7-fluoroimidazo [1,2-a]pyridin-3-yl)isoindolin-1-one]",< 100
22,"C[C@@H]1CC[C@@](C)(O)CN1c1ccc(Nc2ccc(-c3cnn4c3CCCC4)c3c2C(=O)NC3)nc1 [I-598, 7-((5-((2R,5R)-5-hydroxy-2,5-dimethyl-piperidin-1-yl)pyridin-2-yl)amino)-4-(4,5,6,7-tetrahydropyra-zolo[1,5-a]pyridin-3-yl)isoindolin-1-one]",< 100

# Results, then the compound that gave them:
row,IC50 [nM],Compound
1,< 100,"CN(C)Cc1nc(Nc2ccc(-c3cnc4cc(F)ccn34)c3c2C(=O)NC3)ccc1N1CCO[C@@H](C(C)(C)O)C1 [I-775, (R)-7-((6-((dimethylamino)-methyl)-5-(2-(2-hydroxypropan-2-yl)morpho-lino)pyridin-2-yl)amino)-4-(7-fluoroimidazo [1,2-a]pyridin-3-yl)isoindolin-1-one]"
2,< 100,"Cc1ccn2c(-c3ccc(Nc4ccc(N5CCN(C)CC5)cn4)c4c3CNC4=O)cnc2c1 [I-64, 4-(7-methylimidazo [1,2-a]pyridin-3-yl)-7-[[5-(4-methylpiperazin-1-yl)-2-pyridyl]amino] isoindolin-1-one]"
3,< 100,"O=C1NCc2c(-c3cnc4ccccn34)ncc(Nc3ccc(N4CCNCC4)cn3)c21 [I-63, 4-imidazo[1,2-a]pyridin-3-yl-7-[(5-piperazin-1-yl-2-pyridyl)amino]-2,3-dihydropyrrolo [3,4-c]pyridin-1-one]"
4,< 100,"Cn1ccc2c(-c3ccc(Nc4ccc(N5CCC(O)(CN6CCOCC6)CC5)cn4)c4c3CNC4=O)ccnc21 [I-291, 7-((5-(4-hydroxy-4-(morpholino-methyl)piperi-din-1-yl)pyridin-2-yl)amino)-4-(1-methyl-1H-pyrrolo[2,3-b]pyridin-4-yl)isoindolin-1-one]"
5,< 100,"CN(C)C1CCCc2ccc(Nc3ccc(-c4cnc5cc(F)ccn45)c4c3C(=O)NC4)nc21 (centres unmarked) [I-536, 7-[[8-(dimethylami-no)-5,6,7,8-tetrahydroquin-olin-2-yl]amino]-4-(7-fluoroimidazo [1,2-a]pyridin-3-yl)isoindolin-1-one Formic acid salt]"
6,< 100,"CC(C)(O)[C@H]1CCCN(c2ccc(Nc3cnc(-c4cnn5c4CCCC5)c4c3C(=O)NC4)nc2)C1 [I-355, (S)-7-((5-(3-(2-hydroxy-propan-2-yl)piperidin-1-yl)pyridin-2-yl)amino)-4-(4,5,6,7-tetrahydropyra-zolo[1,5-a]pyridin-3-yl)-2,3-dihydro-1H-pyrrolo[3,4-c]pyridin-1-one]"
7,< 100,"CN(C)Cc1cccc(Nc2ccc(-c3cnc4cc(F)ccn34)c3c2C(=O)NC3)n1 [I-699, 7-((6-((dimethylamino)methyl)pyri-din-2-yl)amino)-4-(7-fluoroimidazo [1,2-a]pyridin-3-yl)isoindolin-1-one]"
8,< 100,"O=C1NCc2c(-c3cnn4c3CCCC4)ccc(Nc3ccc(N4CCC(O)CC4)cn3)c21 [I-284, 7-((5-(4-hydroxy-piperidin-1-yl)pyridin-2-yl)amino)-4-(4,5,6,7-tetrahydropyra-zolo[1,5-a]pyridin-3-yl)isoindolin-1-one]"
9,< 100,"Cc1cnc2c(-c3ccc(Nc4ccc(N5CCN(C)CC5)cn4)c4c3CNC4=O)cnn2c1 [I-111, 7-[[5-(4-methylpiperazin-1-yl)-2-pyridyl]amino]-4-(6-methylpyrazolo[1,5-a]pyrimidin-3-yl)isoindolin-1-one]"
10,< 100,"Cn1ccc2c(-c3ccc(Nc4ncc(N5CCC(O)CC5)cc4F)c4c3CNC4=O)ccnc21 [I-424, 7-((3-fluoro-5-(4-hydroxy-piperidin-1-yl)pyridin-2-yl)amino)-4-(1-methyl-1H-pyrrolo[2,3-b]pyridin-4-yl)isoindolin-1-one]"
